Results on two compounds are retold here after US20220062247A1, “USE OF A PAR-1 ANTAGONIST FOR THE TREATMENT OF A CHRONIC INFLAMMATORY INTESTINAL DISEASE” (CVASTHERA, priority 2018, published 2022).

Assay [1] deals with human colon epithelial cells Caco2. Nature of the assay: Epithelial cells repair: cicatrisation of a lesion on a Caco2 monolayer. Type of assay: cell-based. The protocol: A lesion is practiced using a sterilised forceps on human colon epithelial cells Caco2 in monolayer and at a confluence. Afterwards, the cells are rinsed twice with sterilised […] and then placed in an adequate culture medium. In this medium, vorapaxar at different concentrations (10 nM, 100 nM, 1 μM, 10 μM) or the vehicle (control) are added in independent culture dishes. The cicatrisation of the lesion is supervised and analysed using a confocal microscope for 28 h. The percentage of the lesioned surface of the lesion is determined for each tested condition, 4 h, 22 h and 28 h after the lesion. The obtained results are shown in FIG. 12, respectively in a/, b/ and c/.

Assay [2] relates to inflammatory bowel disease induced by 2,4,6-trinitrobenzenesulfonic acid (TNBS). The assay can be described thus: Colitis induced by intra-colonical TNBS in rats (body weight, DAI score, colon wall thickness, macroscopic damage score, MPO). Type of assay: in vivo, male laboratory rat of the Wistar strain. An excerpt: The purpose of this study is to assess the effectiveness of two PAR-1 antagonists, vorapaxar and 3-2-(chloro-phenyl)-1-[4-(4-fluoro-benzyl)-piperazine-1-yl]propenone (hereinafter, referred to as CSI) in a model of an inflammatory bowel disease induced by 2,4,6-trinitrobenzenesulfonic acid (TNBS) in a male laboratory rat of the Wistar strain. This model is described in the publication of Whittle et al., 2003, in Methods Mol. Biol., 225, 209-222.
In this induced colitis model, the inflammatory reaction is measured every day and is well established 7 days after intra-colonical administration of TNBS.
(§1) Different parameters are measured: the weight of the rats, the presence of blood in the faeces and the diarrhoeas assessed by the disease activity index (DAI score), the intensity of pain (assessed by Von Frey filaments technique measured on days 3 and 7).
The rats are sacrificed 7 days after the beginning of the treatment and the macroscopic damages, the oedema and a marker of the inflammation, myeloperoxidase (MPO), are quantified.
The experiments with the PAR-1 antagonists are carried out in two studies, relating to vorapaxar and CSI, respectively.
The colitis is induced by intra-colonical administration of 2,4,6-trinitrobenzenesulfonic acid (TNBS) (30 mg of TNBS in 0.25 ml of a 50% ethanol/NaCl solution) via a catheter (polyethylene (PE)-60) inserted 8 cm proximally from the anus.
Four groups of 10 rats receive an intra-colonical administration of TNBS, as well as a per os treatment of vorapaxar at the dose of 2.5 mg/kg/day or of CSI at doses of 10 and 40 mg/kg/day or of prednisolone (a compound proposed by the prior art for the treatment of IBDs) at the dose of 3 mg/kg/day. The per os treatments start 1 h before the intra-colonical administration of TNBS.
As a negative comparative example, 1 group of 10 rats receives an intra-colonical administration of TNBS and of the vorapaxar vehicle (phosphate buffered saline—PBS) or of the CSI vehicle (carboxymethyl cellulose—CMC at 1%) per os daily.
Moreover, 1 group of 6 control rats receives an intra-colonical administration of NaCl instead of TNBS.
The DAI score is determined as follows. The development of the disease is estimated on a daily basis. The consistence of the excrements, as well as the presence of blood in the faeces assessed with the Hemoccult® paper test, are respectively quantified by the seriousness scales of Table 3 hereinbelow. The obtained values are added together to obtain the DAI score.
The macroscopic damage score is assessed according to the protocol described in the publication of Comera et al., 1999, Dig. Dis. Sci. 44: 1448-1457, as follows. On day 7 after induction of the colitis, the rats are sacrificed by carbon dioxide CO2 inhalation, the colon (from the anus to the Caecum) is removed and the macroscopic damages are assessed according to the parameters observed and presented in Table 4 hereinbelow, to determine the macroscopic damage score.

Assay [3] relates to nociceptive response induced by TNBS. Nature of the assay: Nociceptive response (allodynia) by Von Frey filaments technique in TNBS colitis rats. The class given is in vivo, rat. Particulars: 2.5 mg/kg/day, 7 days after colitis induction. Here is the method:
as §1
The intensity of the pain is measured by the Von Frey filaments technique on days […], according to the protocol described in the publication of Auge et al., 2013, Eur. J. Pharmacol. 707: 32-40.
The effect on the nociceptive response, measured by Von Frey filaments technique according to the mass of Von Frey filaments, is shown in FIG. 10 for prednisolone and in FIG. 11 for vorapaxar.

Assay [4] has as its system induced colitis. Particulars: induced colitis model in mice, by reducing the inflammation phenomenon; cited from earlier work.

Molecules are shown by their SMILES.

Consider `CCOC(=O)N[C@@H]1CC[C@@H]2[C@@H](C1)C[C@H]1C(=O)O[C@H](C)[C@H]1[C@H]2/C=C/c1ccc(-c2cccc(F)c2)cn1` [vorapaxar, ethyl N-[(1R,3aR,4aR,6R,8aR,9S,9aS)-9-[(E)-2-[5-(3-fluorophenyl)pyridin-2-yl]ethenyl]-1-methyl-3-oxo-3a,4,4a,5,6,7,8,8a,9,9a-decahydro-1H-benzo[f][2]benzofuran-6-yl]carbamate], for which the “cicatrisation of the lesion (percentage of the lesioned surface)” value is listed as “highly enhanced” in assay [1] (Caco2, 4 h after the lesion, 100 nM, 1 μM and 10 μM); “amplifies the cicatrisation surface in a concentration-dependent way” in assay [1] (Caco2, 22 h after the lesion, 10 nM to 10 μM); “complete cicatrisation” in assay [1] (Caco2, 28 h after the lesion, from 100 nm to 10 μM). Moreover, the “disease activity index (DAI)” value in assay [2] (2.5 mg/kg daily, 7th day) is given as “significantly reduces”; in assay [2] (2.5 mg/kg, as of the 1st day, vs vehicle group), “significantly reduced”. Further, in assay [2] (2.5 mg/kg daily, 7th day, vs vehicle group), the “apparition of oedema (thickness of the wall of the colon)” value is “significantly reduces”. The “weight loss (body weight)” value in assay [2] (2.5 mg/kg/day per os, as of the 2nd day) was “significantly reduces”. Moreover, the macroscopic damage score entry in assay [2] (2.5 mg/kg/day, day 7, vs vehicle group) was “significantly reduces”. Further, the “allodynia-type response (Von Frey)” value in assay [3] is listed as “significantly inhibits”.
In the case of `COc1ccc(C[C@H](NC(=O)Nc2ccc3c(CN4CCCC4)cn(Cc4c(Cl)cccc4Cl)c3c2)C(=O)N[C@@H](CCCNC(=N)N)C(=O)NCc2ccccc2)cc1` [L-arininamide-4-methoxy-N-[[[1-[92,6-dichlorophenyl-methyl]-3-(1-pyrrolidinylmethyl)-1H-indol-6-yl]amino]carbonyl]-1-phenylalanyl-N-(phenylmethyl)-(5)], the “survival rate of animals” value in assay [4] was “improving the survival rate”.
